Measurements: patent publication EP0878193A1, “REMEDIES FOR HERPESVIRUS INFECTION CAUSED BY HERPESVIRUS AND PREVENTIVES FOR RECURRENCE OF THE INFECTION BOTH CONTAINING TRITERPENE DERIVATIVES AS THE ACTIVE INGREDIENT” (Showa Shell Sekiyu K.K., priority 1996, dated 1997)
≈ marks a conversion by molar mass, not a printed value.

How the values were obtained:
HSV-1 [1] = assay: viral DNA synthesis, slot-blot hybridization with radiation-labeled probe in Vero cells; type: cell-based, herpes simplex virus type 1 (strain 7401 H); settings: HSV-1 in Vero cells; 0, 5, 10 or 20 µg/mℓ; even at 20 µg/mℓ; Fig. 2
Procedure: (§1) Finally, in order to examine effects of moronic acid on the viral synthesis ability, the amount of virus particles in cultured cells was measured by the slot-blot hybridization described in J. Traditional Med., 12, 187 - 194 (1995). Using a radiation-labeled probe, viral DNA synthesis ability of herpesvirus strains HSV-1 and AP^r1 was measured just after adsorption of the viruses to animal cells (Vero cells) or when concentration of 3-oxo-olean-18-en-28-oic acid (moronic acid) was changed (0, 5, 10 or 20 µg/mℓ), with the results shown as a chart in Fig. 2 (photograph).
(§2) In Fig. 2, rough amounts of each herpesvirus are shown by the strength of black parts. For the sake of comparison, DNA copy number of a virus TK^- is shown on the right-side column as a reference strength.

HSV-1 [2] = assay: amount of virus in skin and brain of mice infected with HSV-1 (plaque assay of tissue homogenates); type: in vivo; settings: for Skin/brain (ratio): ratio of the percentages of skin and brain
Procedure: Next, effects of 3-oxo-olean-18-en-28-oic acid (moronic acid) against a virus in the animal body were examined by infecting skin cell tissues of mice with the viral strain HSV-1 and measuring the amount of the virus particles remained in the affected part of the skin and those migrated from the skin into intracerebral nerve cells 2, 3, 4 and 6 days after the infection, when a control (water only) or a varied amount of 3-oxo-olean-18-en-28-oic acid (moronic acid) was administered to the mice. In each of the experiments 1 and 2, three mice were used in one group and the average number of virus particles obtained from each mouse was used as the amount of virus. The amount of virus was measured by cutting off an area of 1 cm^2 around the affected part in the case of the skin or using the entire brain portion in the case of the brain. Each of the tissue samples was mixed with 2 mℓ of physiological saline and homogenated, the supernatant fluid obtained therefrom was used as a virus test solution to carry out a plaque assay (plaque measuring method) using cultured Vero cells, and the number of plaques thus counted was used as the amount of virus. The skin/brain ratio is a value calculated as the ratio of respective percentages obtained from the skin and the brain.
With regard to the numeral in ( ) such as (100%), (65.4%) or the like shown in the item of the amount of virus, the amount of virus in the control was defined as 100% and shown as (100%), the ratio of residual virus particles when 10 mg/kg of moronic acid was administered was 65.4% so that it was shown as (65.4%), and other numerals in ( ) under respective data were shown in the same manner.

HSV-2 = assay: plaque formation test (antiviral activity, CPE as index) on Vero cells; type: cell-based, herpes simplex virus type 2 (strain Ito 1262); settings: Human alphaherpesvirus 2, Vero, 50% plaque formation inhibition concentration; HSV-2 on Vero cells; three experiments; read-out: EC50 (µg/mℓ) (average ± standard deviation)
Description: In order to examine antiviral activity, herpes simplex virus type 1 (strain 7401 H) (referred sometimes to as "HSV-1" hereinafter), TK deficiency herpes simplex virus type 1 (strain B 2006) (referred sometimes to as "TK^-" hereinafter), phosphono acetic acid (referred to as "PAA" hereinafter) resistant herpes simplex virus type 1 (PAA resistant strain derived from 7401 H) (referred sometimes to as "AP^r1" hereinafter) and herpes simplex virus type 2 (strain Ito 1262) (referred sometimes to as "HSV-2" hereinafter) were used as viruses. […]
That is, the above-described virus solution was diluted to a concentration of 100 plaques/0.2 mℓ, the thus diluted virus solution (0.2 mℓ) was inoculated into Vero cells which have been cultured into monolayer in a plastic dish of 60 mm in diameter, and the mixture was incubated at 37°C for 1 hour to effect adsorption of viruses to the Vero cells. After the adsorption, 2% fetal bovine serum-added MEM medium (5 mℓ) containing each drug solution to be measured having varied drug concentration and 0.8% methyl cellulose was overlaid on the just described virus-adsorbed monolayer Vero cells which were subsequently cultured at 37°C for 2 to 5 days to effect plaque formation. […] The number of plaques was counted under a stereoscopic microscope. […]

AP^r1 = assay: viral DNA synthesis, slot-blot hybridization with radiation-labeled probe in Vero cells; type: cell-based; settings: 0, 5, 10 or 20 µg/mℓ, even at 20 µg/mℓ, Fig. 2
Procedure: as §1, §2

[3] = Exp. 1, 2 days after infection, 10 mg/kg
[4] = Exp. 1, 4 days after infection, 1 mg/kg
[5] = Exp. 1, 4 days after infection, 10 mg/kg
[6] = Exp. 1, 6 days after infection, 1 mg/kg
[7] = Exp. 1, 6 days after infection, 10 mg/kg
[8] = Exp. 2, 3 days after infection, 1 mg/kg
[9] = Exp. 2, 3 days after infection, 5 mg/kg
[10] = Exp. 2, 6 days after infection, 1 mg/kg
[11] = Exp. 2, 6 days after infection, 5 mg/kg

## CC1(C)C=C2[C@H]3CC[C@@H]4[C@@]5(C)CCC(=O)C(C)(C)[C@@H]5CC[C@@]4(C)[C@]3(C)CC[C@@]2(C(=O)O)CC1 [Moronic acid, 3-oxo-olean-18-en-28-oic acid]
HSV-1 [1]
  effect to inhibit virus DNA synthesis: not found
HSV-1 [2]; [3]
  Amount of virus (average ± standard deviation, PFU/organ) Skin: 4.9 ± 0.0 (log10 PFU)/cm^2
  Amount of virus Skin, relative to control defined as 100%: 91.2%
HSV-1 [2]; [4]
  Amount of virus (average ± standard deviation, PFU/organ) Brain: < 2.4 ± 0.0 (log10 PFU)/total
  Amount of virus (average ± standard deviation, PFU/organ) Skin: 6.1 ± 0.4 (log10 PFU)/cm^2
  Amount of virus Brain, relative to control defined as 100%: < 83.9%
  Amount of virus Skin, relative to control defined as 100%: 93.5%
  Skin/brain (ratio): >1.12
HSV-1 [2]; [5]
  Amount of virus (average ± standard deviation, PFU/organ) Brain: < 2.40 ± 0.0 (log10 PFU)/total
  Amount of virus (average ± standard deviation, PFU/organ) Skin: 6.3 ± 0.3 (log10 PFU)/cm^2
  Amount of virus Brain, relative to control defined as 100%: < 83.9%
  Amount of virus Skin, relative to control defined as 100%: 96.3%
  Skin/brain (ratio): >1.15
HSV-1 [2]; [6]
  Amount of virus (average ± standard deviation, PFU/organ) Brain: 3.5 ± 0.4 (log10 PFU)/total
  Amount of virus (average ± standard deviation, PFU/organ) Skin: 6.1 ± 0.2 (log10 PFU)/cm^2
  Amount of virus Brain, relative to control defined as 100%: 85.6%
  Amount of virus Skin, relative to control defined as 100%: 95.3%
  Skin/brain (ratio): 1.12
HSV-1 [2]; [7]
  Amount of virus (average ± standard deviation, PFU/organ) Brain: 2.3 ± 0.3 (log10 PFU)/total
  Amount of virus (average ± standard deviation, PFU/organ) Skin: 6.0 ± 0.1 (log10 PFU)/cm^2
  Amount of virus Brain, relative to control defined as 100%: 57.0%
  Amount of virus Skin, relative to control defined as 100%: 94.2%
  Skin/brain (ratio): 1.674
HSV-1 [2]; [8]
  Amount of virus (average ± standard deviation, PFU/organ) Skin: 5.5 ± 0.4 (log10 PFU)/cm^2
  Amount of virus Skin, relative to control defined as 100%: 98.2%
HSV-1 [2]; [9]
  Amount of virus (average ± standard deviation, PFU/organ) Skin: 5.1 ± 0.4 (log10 PFU)/cm^2
  Amount of virus Skin, relative to control defined as 100%: 91.5%
HSV-1 [2]; [10]
  Amount of virus (average ± standard deviation, PFU/organ) Brain: 3.0 ± 0.6 (log10 PFU)/total
  Amount of virus (average ± standard deviation, PFU/organ) Skin: 4.8 ± 0.7 (log10 PFU)/cm^2
  Amount of virus Brain, relative to control defined as 100%: 80.7%
  Amount of virus Skin, relative to control defined as 100%: 93.9%
  Skin/brain (ratio): 1.16
HSV-1 [2]; [11]
  Amount of virus (average ± standard deviation, PFU/organ) Brain: 2.7 ± 0.3 (log10 PFU)/total
  Amount of virus (average ± standard deviation, PFU/organ) Skin: 5.6 ± 0.2 (log10 PFU)/cm^2
  Amount of virus Brain, relative to control defined as 100%: 72.2%
  Amount of virus Skin, relative to control defined as 100%: 109.0%
  Skin/brain (ratio): 31.9
HSV-2
  EC50: 5.8 ± 0.5 µg/mL (≈ 12.8 µM)
AP^r1
  effect to inhibit virus DNA synthesis: not found
